# Columns and labels:
# Assay type in all cases: biochemical
# [1] = molecular target: T1, MMP-1FL (full length interstitial collagenase) (Homo sapiens, UniProt P03956); assay: Thiopeptolide hydrolysis assay, MMP-1FL; settings: thiopeptolide substrate, HEPES pH 7.0, 22° C.
# T1 sequence (P03956 100-469): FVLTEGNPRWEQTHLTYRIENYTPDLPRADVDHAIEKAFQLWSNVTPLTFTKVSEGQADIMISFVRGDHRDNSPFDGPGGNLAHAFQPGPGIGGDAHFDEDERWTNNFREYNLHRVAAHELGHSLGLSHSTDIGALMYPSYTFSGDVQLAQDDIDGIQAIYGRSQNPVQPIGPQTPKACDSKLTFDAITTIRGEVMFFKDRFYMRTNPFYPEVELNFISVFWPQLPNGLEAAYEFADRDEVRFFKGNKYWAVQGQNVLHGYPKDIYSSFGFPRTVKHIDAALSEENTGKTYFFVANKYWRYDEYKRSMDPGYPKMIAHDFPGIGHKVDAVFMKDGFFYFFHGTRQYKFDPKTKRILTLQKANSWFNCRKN
# Source text: (§1) The assays measure the amount by which a test compound reduces the hydrolysis of a thiopeptolide substrate catalyzed by a matrix metalloproteinase enzyme. Such assays are described in detail by Ye et al., in Biochemistry, 1992;31(45):11231-11235, which is incorporated herein by reference.
# (§2) Thiopeptolide substrates show virtually no decomposition or hydrolysis at or below neutral pH in the absence of a matrix metalloproteinase enzyme. A typical thiopeptolide substrate commonly utilized for assays is Ac-Pro-Leu-Gly-thioester-Leu-Leu-Gly-OEt. A 100 μL assay mixture will contain 50 mM of N-2-hydroxyethylpiperazine-N′-2-ethanesulfonic acid buffer (“HEPES”) at pH 7.0, 10 mM CaCl2, 100 μM thiopeptolide substrate, and 1 mM 5,5″-dithio-bis-(2-nitro-benzoic acid) (DTNB). The thiopeptolide substrate concentration may be varied from, for example, 10 to 800 μM to obtain Km and Kcat values. The change in absorbance at 405 nm is monitored on a Thermo Max microplate reader (Molecular Devices, Menlo Park, Calif.) at room temperature (22° C.). The calculation of the amount of hydrolysis of the thiopeptolide substrate is based on E412=13600 M^−1 cm^−1 for the DTNB-derived product 3-carboxy4-nitrothiophenoxide. Assays are carried out with and without matrix metalloproteinase inhibitor compounds, and the amount of hydrolysis is compared for a determination of inhibitory activity of the test compounds.
# (§3) Several representative compounds have been evaluated for their ability to inhibit various matrix metalloproteinase enzymes. In Table I, MMP-1FL refers to full length interstitial collagenase; MMP-2FL refers to full length Gelatinase A; MMP-3CD refers to the catalytic domain of stromelysin-1; MMP-7FL refers to full length matrilysin; MMP-9FL refers to full length Gelatinase B; MMP-13CD refers to the catalytic domain of collagenase 3; and MMP-14CD refers to the catalytic domain of MMP-14. Test compounds were evaluated at various concentrations in order to determine their respective IC50 values, the micromolar concentration of compound required to cause a 50% inhibition of the catalytic activity of the respective enzyme.
# [2] = molecular target: T2, MMP-2FL (full length Gelatinase A) (Homo sapiens, UniProt P08253); assay: Thiopeptolide hydrolysis assay, MMP-2FL; settings: thiopeptolide substrate, HEPES pH 7.0, 22° C.
# T2 sequence (P08253 110-660): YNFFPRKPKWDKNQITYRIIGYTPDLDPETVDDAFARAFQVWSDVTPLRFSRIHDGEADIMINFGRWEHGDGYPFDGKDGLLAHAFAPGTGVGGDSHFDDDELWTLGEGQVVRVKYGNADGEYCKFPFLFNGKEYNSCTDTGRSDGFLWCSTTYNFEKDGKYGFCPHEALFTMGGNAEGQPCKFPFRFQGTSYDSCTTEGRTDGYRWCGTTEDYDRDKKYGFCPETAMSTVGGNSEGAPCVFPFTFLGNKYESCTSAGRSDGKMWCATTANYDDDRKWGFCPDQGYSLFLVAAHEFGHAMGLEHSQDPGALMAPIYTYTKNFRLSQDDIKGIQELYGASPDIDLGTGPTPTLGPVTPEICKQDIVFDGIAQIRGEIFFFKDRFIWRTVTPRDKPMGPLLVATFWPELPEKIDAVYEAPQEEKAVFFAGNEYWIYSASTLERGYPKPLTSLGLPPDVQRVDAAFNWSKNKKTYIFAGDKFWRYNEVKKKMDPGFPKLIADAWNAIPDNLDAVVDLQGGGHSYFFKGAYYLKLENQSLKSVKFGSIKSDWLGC
# Source text: as §1, §2, §3
# [3] = molecular target: MMP-3CD (catalytic domain of stromelysin-1) (Homo sapiens, UniProt P08254); assay: Thiopeptolide hydrolysis assay, MMP-3CD; settings: thiopeptolide substrate, MES pH 6.0
# MMP-3CD (catalytic domain of stromelysin-1), sequence (P08254 100-272 limits assumed): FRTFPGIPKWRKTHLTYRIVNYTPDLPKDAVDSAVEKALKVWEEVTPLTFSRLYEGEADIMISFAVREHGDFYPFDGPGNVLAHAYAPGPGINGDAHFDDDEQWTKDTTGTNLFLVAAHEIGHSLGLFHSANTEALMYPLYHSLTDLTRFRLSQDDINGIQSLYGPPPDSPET
# Source text: as §1, §2, §3
# It should be appreciated that the assay buffer used with MMP-3CD was 50 mM of 2-morpholinoethanesulfonic acid monohydrate (“MES”) at pH 6.0 rather than the HEPES buffer at pH 7.0 described above.
# [4] = molecular target: T3, MMP-7FL (full length matrilysin) (Homo sapiens, UniProt P09237); assay: Thiopeptolide hydrolysis assay, MMP-7FL; settings: thiopeptolide substrate, HEPES pH 7.0, 22° C.
# T3 sequence (P09237 95-267): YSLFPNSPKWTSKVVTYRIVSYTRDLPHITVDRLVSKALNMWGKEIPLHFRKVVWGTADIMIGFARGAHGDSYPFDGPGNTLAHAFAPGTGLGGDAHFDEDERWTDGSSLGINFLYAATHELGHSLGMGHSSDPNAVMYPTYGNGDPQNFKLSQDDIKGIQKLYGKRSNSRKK
# Source text: as §1, §2, §3
# [5] = molecular target: MMP-9FL (full length Gelatinase B) (Homo sapiens, UniProt P14780); assay: Thiopeptolide hydrolysis assay, MMP-9FL; settings: thiopeptolide substrate, HEPES pH 7.0, 22° C.
# MMP-9FL (full length Gelatinase B), sequence (P14780 94-707, species assumed): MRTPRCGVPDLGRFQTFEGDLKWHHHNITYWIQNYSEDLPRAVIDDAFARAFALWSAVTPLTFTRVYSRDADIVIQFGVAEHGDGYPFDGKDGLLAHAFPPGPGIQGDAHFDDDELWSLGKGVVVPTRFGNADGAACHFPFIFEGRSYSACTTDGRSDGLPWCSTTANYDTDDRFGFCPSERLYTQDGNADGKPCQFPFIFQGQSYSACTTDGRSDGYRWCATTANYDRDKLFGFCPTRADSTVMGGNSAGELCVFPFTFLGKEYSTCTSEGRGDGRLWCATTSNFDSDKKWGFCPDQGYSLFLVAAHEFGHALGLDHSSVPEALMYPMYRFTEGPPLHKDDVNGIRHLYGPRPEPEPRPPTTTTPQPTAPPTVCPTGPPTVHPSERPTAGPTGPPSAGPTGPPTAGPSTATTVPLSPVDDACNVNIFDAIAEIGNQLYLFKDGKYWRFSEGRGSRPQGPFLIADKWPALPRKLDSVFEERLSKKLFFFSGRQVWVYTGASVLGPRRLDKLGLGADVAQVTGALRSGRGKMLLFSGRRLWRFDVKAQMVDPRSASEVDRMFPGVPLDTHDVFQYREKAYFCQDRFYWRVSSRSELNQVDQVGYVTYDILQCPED
# Source text: as §1, §2, §3
# MMP-12CD = molecular target: T4, MMP-12CD (Homo sapiens, UniProt P39900); assay: Thiopeptolide hydrolysis assay, MMP-12CD; settings: thiopeptolide substrate, HEPES pH 7.0, 22° C.
# T4 construct: MMP-12CD
# T4 sequence (P39900 106-263 limits assumed): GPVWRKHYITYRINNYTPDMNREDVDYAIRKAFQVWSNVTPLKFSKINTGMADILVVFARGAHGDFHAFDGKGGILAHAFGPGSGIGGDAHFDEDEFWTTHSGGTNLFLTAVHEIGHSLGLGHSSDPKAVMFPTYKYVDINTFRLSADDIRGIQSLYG
# Source text: as §1, §2, §3
# [6] = molecular target: MMP-13CD (catalytic domain of collagenase 3) (Homo sapiens, UniProt P45452); assay: Thiopeptolide hydrolysis assay, MMP-13CD; settings: thiopeptolide substrate, HEPES pH 7.0, 22° C.
# Source text: as §1, §2, §3
# [7] = molecular target: MMP-14CD (catalytic domain of MMP-14) (Homo sapiens, UniProt P50281); assay: Thiopeptolide hydrolysis assay, MMP-14CD; settings: thiopeptolide substrate, HEPES pH 7.0, 22° C.
# Source text: as §1, §2, §3
IC50 [1] [µM],IC50 [2] [µM],IC50 [3] [µM],IC50 [4] [µM],IC50 [5] [µM],IC50 (MMP-12CD) [µM],IC50 [6] [µM],IC50 [7] [µM],Molecule
9.7,0.23,0.054,92.5,6.65,0.0285,0.3,0.615,"CC1(C)SCCN(S(=O)(=O)c2ccc(-c3ccc(F)c(F)c3)cc2)[C@H]1C(=O)O [Example 41, (S)-4-(3′,4′-Difluoro-biphenyl-4-sulfonyl)-2,2-dimethyl-thiomorpholine-3-carboxylic acid]"
7.95,0.0023,0.0038,70,0.018,0.001,0.0033,0.16,"CCOc1ccc(-c2ccc(S(=O)(=O)N3CCSC(C)(C)[C@@H]3C(=O)O)cc2)cc1 [Example 43, (S)-4-(4′-Ethoxy-biphenyl-4-sulfonyl)-2,2-dimethyl-thiomorpholine-3-carboxylic acid]"
3.15,0.0043,0.0072,1.85,0.017,0.001,0.0086,0.145,"CC1(C)SCCN(S(=O)(=O)c2ccc(-c3ccc(-c4ccccc4)c(F)c3)cc2)[C@H]1C(=O)O [Example 53, (S)-4-(2′-Fluoro-[1,1′;4′,1″]terphenyl-4″-sulfonyl)-2,2-dimethyl-thiomorpholine-3-carboxylic acid]"

Molecule,IC50 [1] [µM],IC50 [2] [µM],IC50 [3] [µM],IC50 [4] [µM],IC50 [5] [µM],IC50 (MMP-12CD) [µM],IC50 [6] [µM],IC50 [7] [µM]
"(S)-2,2-Dimethyl-4-(4-methylsulfanyl-biphenyl-4-sulfonyl)-thiomorpholine-3-carboxylic acid [Example 37]",2.03,0.0025,0.00475,6.87,0.069,0.001,0.00305,0.036

# — patent publication US6686355B2, “Biphenyl sulfonamides useful as matrix metalloproteinase inhibitors” (Warner-Lambert Company, priority 2001, dated 2004)
